Data from paper PMC9490060, “Synthesis and evaluation of anticancer activity of quillaic acid derivatives: A cell cycle arrest and apoptosis inducer through NF-κB and MAPK pathways” (Frontiers in Chemistry, 2022).

Experiments:
[1] = system: SW620 (human colorectal cancer cell line); test: MTT anti-proliferative assay, SW620; format: cell-based; conditions: Homo sapiens, SW-620, 48 h incubation, means ± SD, n = 3
Description: (§1) The anti-proliferative activities against five human cancer cell lines, including HCT116 (human colorectal cancer cell line), MCF-7 (human breast cancer cell line), SW620 (human colorectal cancer cell line), BEL7402 (human hepatocellular carcinoma cell line), and HepG2 (human hepatocellular carcinoma cell line) were established for all the target compounds using the MTT assay.
(§2) The propidium iodide (PI) and Annexin V-FITC apoptosis detection kit were purchased from Invitrogen (Eugene, OR, United States). 3-(4,5-Dimethylthiazol-2-yl)-2,5-diphenyl-2H-tetrazolium bromide (MTT) was purchased from Sigma-Aldrich Co. (St. Louis, MO, United States). All human cell lines were used in this study, colorectal cancer cell HCT116, colorectal cancer cell SW620, breast cancer cell MCF-7, liver hepatocellular carcinoma cell BEL7402, liver hepatocellular carcinoma HepG2 and normal liver cell L02 were initially purchased from American Type Culture Collection (ATCC, Manassas, VA, United States). RPMI-1640 media, Dulbecco’s modified Eagle’s medium (DMEM), and foetal bovine serum (FBS) were provided from Gibco Company (Grand Island, NY, United States). Cell line MCF-7 and HepG2 were cultivated in DMEM containing 10% (v/v) heat-inactivated FBS, 100 units/ml penicillin and […] streptomycin (Grand Island, NY, United States). Cell lines HCT116, BEL7402, SW620, and L02 were cultivated in RPMI 1640 medium containing 10% (v/v) heat-inactivated FBS, 100 units/ml penicillin, and […] streptomycin. The cells were incubated at 37°C under a 5% CO2 and 90% relative humidity (RH) atmosphere.
(§3) Stock solutions were prepared by diluting target compounds in DMSO at concentrations (1.25, 2.5, 5, and 10 mM). The stock solution was then diluted (1.25, 2.5, 5, and 10 μM) with culture medium, and the concentration of DMSO was controlled not to exceed 0.1%.
(§4) Place the cells in a 96-well plate at an appropriate density to ensure exponential growth (1 × 10^4–1.2×10^4 cells per well) throughout the experiment, and then allow the cells to adhere for 24 h. The cells were then treated with continuous concentrations of each compound (1.25, 2.5, 5, and 10 μM) for 48 h. After 48 h of incubation, 15 μl of MTT solution was added to each well, and the final concentration was 2 mg/ml. Then incubate for another 4 h. After incubation, remove the MTT solution and add […] of DMSO to each well for staining. Shake vigorously for 10 min at room temperature to ensure complete dissolution. The optical density (OD) was read on a microplate reader (ELx 800, BioTek, Highland Park, Winooski, VT, United States) with a wavelength of 492 nm, and then the data was analyzed.

[2] = system: BEL7402 (human hepatocellular carcinoma cell line); test: MTT anti-proliferative assay, BEL7402; format: cell-based; conditions: Homo sapiens, Bel-7402, 48 h incubation, means ± SD, n = 3
Description: as §1, §2, §3, §4

[3] = system: MCF-7 (human breast cancer cell line); test: MTT anti-proliferative assay, MCF-7; format: cell-based; conditions: Homo sapiens, MCF7, 48 h incubation, means ± SD, n = 3
Description: as §1, §2, §3, §4

[4] = system: HepG2 (human hepatocellular carcinoma cell line); test: MTT anti-proliferative assay, HepG2; format: cell-based; conditions: Homo sapiens, HepG2, 48 h incubation, means ± SD, n = 3
Description: as §1, §2, §3, §4

[5] = system: HCT116 (human colorectal cancer cell line); test: MTT anti-proliferative assay, HCT116; format: cell-based; conditions: Homo sapiens, HCT-116, 48 h incubation, means ± SD, n = 3
Description: as §1, §2, §3, §4

[6] = system: L02 (human normal liver cells); test: Cytotoxicity against normal cell line L02; format: cell-based
Description: The lack of selectivity between normal and cancer cells is one of the main limitations of antitumor drugs ([Dy and Adjei, 2013]). Therefore, we evaluated the cytotoxicity of compounds B2, and E in normal cell lines L02 (human normal liver cells) to determine the selectivity index (ratio of cytotoxicity in L02 cells compared to that in cancer cells). […] Therefore, this compound was chosen for further biological studies.
as §2, §3, §4

Compound | IC50 [1] [µM] | IC50 [2] [µM] | IC50 [3] [µM] | melting point [°C] | IC50 [4] [µM] | IC50 [5] [µM] | IC50 ([6]; Homo sapiens, normal cell line L02) [µM] | Selectivity index BEL7402 ([6]; IC50 on normal cells (L02)/IC50 on tumour cells (BEL7402)) | Selectivity index HCT116 ([6]; IC50 on normal cells (L02)/IC50 on tumour cells (HCT116)) | Selectivity index SW620 ([6]; IC50 on normal cells (L02)/IC50 on tumour cells (SW620))
Cc1ccc(-n2cc(COC(=O)[C@]34CCC(C)(C)C[C@H]3C3=CC[C@@H]5[C@@]6(C)CC[C@H](O)[C@@](C)(C=O)[C@@H]6CC[C@@]5(C)[C@]3(C)C[C@H]4O)nn2)cc1 [Compound A9, (1-(p-tolyl)-1H-1,2,3-triazol-4-yl)methyl (4aR,5R,6aS,6bR,8aR,9S,10S,12aR,12bR,14bS)-9-formyl-5,10-dihydroxy-2,2,6a,6b,9,12a-hexamethyl-1,3,4,5,6,6a,6b,7,8,8a,9,10,11,12,12a,12b,13,14b-octadecahydropicene-4a (2H)-carboxylate] | > 10 | > 10 | > 10 | 204 to 206 | > 10 | > 10 | – | – | – | –
CC1(C)CC[C@]2(C(=O)OCc3cn(-c4ccc(Cl)c(Cl)c4)nn3)[C@H](O)C[C@]3(C)C(=CC[C@@H]4[C@@]5(C)CC[C@H](O)[C@@](C)(C=O)[C@@H]5CC[C@]43C)[C@@H]2C1 [Compound A4, (1-(3,4-dichlorophenyl)-1H-1,2,3-triazol-4-yl)methyl (4aR,5R,6aS,6bR,8aR,9S,10S,12aR,12bR,14bS)-9-formyl-5,10-dihydroxy-2,2,6a,6b,9,12a-hexamethyl-1,3,4,5,6,6a,6b,7,8,8a,9,10,11,12,12a,12b,13,14b-octadecahydropicene-4a (2H)-carboxylate] | > 10 | > 10 | > 10 | 205 to 206 | > 10 | > 10 | – | – | – | –
CC1(C)CC[C@]2(C(=O)OCc3cn(-c4ccccc4)nn3)[C@H](O)C[C@]3(C)C(=CC[C@@H]4[C@@]5(C)CC[C@H](O)[C@@](C)(C=O)[C@@H]5CC[C@]43C)[C@@H]2C1 [Compound A1, (1-phenyl-1H-1,2,3-triazol-4-yl)methyl (4aR,5R,6aS,6bR,8aR,9S,10S,12aR,12bR,14bS)-9-formyl-5,10-dihydroxy-2,2,6a,6b,9,12a-hexamethyl-1,3,4,5,6,6a,6b,7,8,8a,9,10,11,12,12a,12b,13,14b-octadecahydropicene-4a (2H)-carboxylate] | 8.96 ± 1.78 | > 10 | > 10 | 186 to 188 | 8.28 ± 2.1 | 3.61 ± 1.01 | – | – | – | –
CC1(C)CC[C@]2(C(=O)OCc3nnc(-c4ccc(F)cc4)o3)[C@H](O)C[C@]3(C)C(=CC[C@@H]4[C@@]5(C)CC[C@H](O)[C@@](C)(C=O)[C@@H]5CC[C@]43C)[C@@H]2C1 [Compound B2, (5-(4-fluorophenyl)-1,3,4-oxadiazol-2-yl)methyl (4aR,5R,6aS,6bR,8aR,9S,10S,12aR,12bR,14bS)-9-formyl-5,10-dihydroxy-2,2,6a,6b,9,12a-hexamethyl-1,3,4,5,6,6a,6b,7,8,8a,9,10,11,12,12a,12b,13,14b-octadecahydropicene-4a (2H)-carboxylate] | 7.75 ± 1.43 | 2.84 ± 0.66 | 3.99 ± 1.28 | 122 to 124 | 4.59 ± 1.73 | 3.12 ± 0.87 | > 10 | > 3.52 | > 3.20 | > 1.29
CC1(C)CC[C@]2(C(=O)OCCn3ncn(-c4ccc(F)cc4)c3=O)[C@H](O)C[C@]3(C)C(=CC[C@@H]4[C@@]5(C)CC[C@H](O)[C@@](C)(C=O)[C@@H]5CC[C@]43C)[C@@H]2C1 [Compound C2, 2-(4-(4-fluorophenyl)-5-oxo-4,5-dihydro-1H-1,2,4-triazol-1-yl)ethyl (4aR,5R,6aS,6bR,8aR,9S,10S,12aR,12bR,14bS)-9-formyl-5,10-dihydroxy-2,2,6a,6b,9,12a-hexamethyl-1,3,4,5,6,6a,6b,7,8,8a,9,10,11,12,12a,12b,13,14b-octadecahydropicene-4a (2H)-carboxylate] | > 10 | > 10 | > 10 | 176 to 178 | > 10 | > 10 | – | – | – | –
CC1(C)CC[C@]2(C(=O)OCc3nnc(-c4ccc(Cl)cc4)o3)[C@H](O)C[C@]3(C)C(=CC[C@@H]4[C@@]5(C)CC[C@H](O)[C@@](C)(C=O)[C@@H]5CC[C@]43C)[C@@H]2C1 [Compound B3, (5-(4-chlorophenyl)-1,3,4-oxadiazol-2-yl)methyl (4aR,5R,6aS,6bR,8aR,9S,10S,12aR,12bR,14bS)-9-formyl-5,10-dihydroxy-2,2,6a,6b,9,12a-hexamethyl-1,3,4,5,6,6a,6b,7,8,8a,9,10,11,12,12a,12b,13,14b-octadecahydropicene-4a (2H)-carboxylate] | 8.18 ± 1.85 | > 10 | > 10 | 132 to 134 | > 10 | 5.01 ± 1.12 | – | – | – | –
COc1ccc(-n2cnn(CCOC(=O)[C@]34CCC(C)(C)C[C@H]3C3=CC[C@@H]5[C@@]6(C)CC[C@H](O)[C@@](C)(C=O)[C@@H]6CC[C@@]5(C)[C@]3(C)C[C@H]4O)c2=O)cc1 [Compound C5, 2-(4-(4-methoxyphenyl)-5-oxo-4,5-dihydro-1H-1,2,4-triazol-1-yl)ethyl (4aR,5R,6aS,6bR,8aR,9S,10S,12aR,12bR,14bS)-9-formyl-5,10-dihydroxy-2,2,6a,6b,9,12a-hexamethyl-1,3,4,5,6,6a,6b,7,8,8a,9,10,11,12,12a,12b,13,14b-octadecahydropicene-4a (2H)-carboxylate] | 7.25 ± 1.72 | > 10 | > 10 | 186 to 188 | > 10 | 3.21 ± 1.07 | – | – | – | –
CC1(C)CC[C@]2(C(=O)OCCn3ncn(-c4ccc(Cl)c(Cl)c4)c3=O)[C@H](O)C[C@]3(C)C(=CC[C@@H]4[C@@]5(C)CC[C@H](O)[C@@](C)(C=O)[C@@H]5CC[C@]43C)[C@@H]2C1 [Compound C4, 2-(4-(3,4-dichlorophenyl)-5-oxo-4,5-dihydro-1H-1,2,4-triazol-1-yl)ethyl (4aR,5R,6aS,6bR,8aR,9S,10S,12aR,12bR,14bS)-9-formyl-5,10-dihydroxy-2,2,6a,6b,9,12a-hexamethyl-1,3,4,5,6,6a,6b,7,8,8a,9,10,11,12,12a,12b,13,14b-octadecahydropicene-4a (2H)-carboxylate] | > 10 | > 10 | > 10 | 187 to 189 | > 10 | > 10 | – | – | – | –
